Measurements: ChEMBL document CHEMBL5029197, “Synthesis and Metabolism of BTN3A1 Ligands: Studies on Diene Modifications to the Phosphoantigen Scaffold” (ACS Med Chem Lett, 2022)
Active and inactive are the calls of the source. No cut-off for these calls is given here.

Legend:
[1] = test system: K562; experiment: Cytotoxicity against human K562 cells assessed as reduction in cell viability measured after 72 hrs by colorimetric assay; type: cell-based; details: k562, 72 h
[2] = test system: Vgamma9Vdelta2-T cell; experiment: (§1) Induction of IFN-gamma production in human Vgamma9Vdelta2-T cells incubated for 240 mins with compound-loaded K562 cells followed by compound washout and measured after 20 hrs by ELISA; type: functional, cell-based
[3] = test system: Vgamma9Vdelta2-T cell; experiment: (§2) Induction of IFN-gamma production in human Vgamma9Vdelta2-T cells incubated for 60 mins with compound-loaded K562 cells followed by compound washout and measured after 20 hrs by ELISA; type: functional, cell-based
[4] = Stability of compound in human plasma assessed as parent compound remaining at 100 uM measured after 2 hrs by LC-MS analysis; type: ADME, cell-free; details: for remaining at 2 h, 100 µM: read-out: Stability; for Stability: 2 h, 100 µM
[5] = test system: Vgamma9Vdelta2-T cell; experiment: (§3) Induction of cell proliferation in human Vgamma9Vdelta2-T cells stimulated with human PBMC for 3 days followed by compound washout and supplemented with IL2 every 3 days for 11 days by flow cytometry analysis; type: functional, cell-based; details: time 3.0 day
[6] = test system: Vgamma9Vdelta2-T cell; experiment: (§4) Induction of IFN-gamma production in human Vgamma9Vdelta2-T cells incubated for 4 mins with compound-loaded K562 cells followed by compound washout and measured after 20 hrs by ELISA; type: functional, cell-based
[7] = test system: Vgamma9Vdelta2-T cell; experiment: (§5) Induction of IFN-gamma production in human Vgamma9Vdelta2-T cells incubated for 15 mins with compound-loaded K562 cells followed by compound washout and measured after 20 hrs by ELISA; type: functional, cell-based
[8] = Drug metabolism in human K562 cells assessed as monoacid methyl ester metabolite formation at 100 uM incubated for 1 hr by LC-MS analysis; type: ADME, cell-based; details: k562, 1 h
[9] = Stability of compound in human plasma assessed as parent compound remaining at 100 uM measured after 24 hrs by LC-MS analysis; type: ADME, cell-free; details: for remaining at 24 h, 100 µM: read-out: Stability; for Stability: 24 h, 100 µM
[10] = as §1; type: functional, cell-based; details: Vgamma9Vdelta2 T cell
[11] = as §2; type: functional, cell-based; details: Vgamma9Vdelta2 T cell
[12] = as §3; type: functional, cell-based
[13] = as §4; type: functional, cell-based; details: Vgamma9Vdelta2 T cell
[14] = as §5; type: functional, cell-based; details: Vgamma9Vdelta2 T cell
[15] = Drug metabolism in human K562 cells assessed as free phosphonic diacid metabolite formation at 100 uM incubated for 1 hr by LC-MS analysis; type: ADME, cell-based; details: k562, 1 h
[16] = molecular target: Butyrophilin subfamily 3 member A1 (Homo sapiens) (UniProt O00481); experiment: Displacement of GDP-BODIPY probe from BTN3A1 full intracellular domain (unknown origin) at […] measured after 60 mins by fluorescence polarization assay
Chain of Butyrophilin subfamily 3 member A1 (Homo sapiens) (O00481 30-513 limits assumed): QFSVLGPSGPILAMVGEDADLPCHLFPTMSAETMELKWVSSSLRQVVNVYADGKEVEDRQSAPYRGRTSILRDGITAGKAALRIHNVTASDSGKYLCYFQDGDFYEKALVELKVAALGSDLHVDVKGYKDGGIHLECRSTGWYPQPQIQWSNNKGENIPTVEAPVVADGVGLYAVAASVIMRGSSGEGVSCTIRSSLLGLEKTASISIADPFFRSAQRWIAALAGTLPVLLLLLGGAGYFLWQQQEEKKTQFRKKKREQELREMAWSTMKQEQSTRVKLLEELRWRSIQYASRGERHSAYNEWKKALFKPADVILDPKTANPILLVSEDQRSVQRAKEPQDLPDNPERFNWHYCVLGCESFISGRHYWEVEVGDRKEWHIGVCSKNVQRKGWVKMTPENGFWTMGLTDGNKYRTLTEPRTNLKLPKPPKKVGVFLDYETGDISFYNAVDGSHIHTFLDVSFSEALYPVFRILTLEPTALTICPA

SMILES	Activity [1] [µM]	Activity [2]	Activity [3]	remaining at 2 h, 100 µM [4] [%]	Activity [5]	Activity [6]	Activity [7]	Drug metabolism [8]	remaining at 24 h, 100 µM [9] [%]	EC50 [10] [µM]	EC50 [11] [µM]	EC50 [12] [µM]	EC50 [13] [µM]	EC50 [14] [µM]	Drug metabolism [15]	Stability [4]	Stability [9]	Activity [16]
CC(C)=C/C=C/P(=O)(Oc1ccccc1)Oc1ccccc1	> 100	inactive	inactive	89	inactive	inactive	inactive	Metabolite_Notdetected	73									
COP(=O)(/C=C/C=C(C)C)OCOC(=O)C(C)(C)C (configuration not stated)	20			62				Metabolite_Detected	4	11	37	0.13	> 100	98				
CC(=O)OC/C(C)=C/C=C/P(=O)(OCOC(=O)C(C)(C)C)OCOC(=O)C(C)(C)C	> 100									38	> 100	60	> 100	> 100	Metabolite_Detected	Unstable	Unstable	
C/C(=C\CCP(=O)(O)O)CO																		inactive
CC(C)=C/C=C/P(=O)(OCOC(=O)C(C)(C)C)Oc1ccccc1 (configuration not stated)	100			48					16	9.1	29	0.75	> 100	> 100	Metabolite_Detected			
CC(C)=C/C=C/P(=O)([O-])[O-].[Na+].[Na+]	> 100											> 100						Active
CC(C)=C/C=C/P(=O)(OCOC(=O)C(C)(C)C)OCOC(=O)C(C)(C)C	> 100			6						18	52	0.29	> 100	> 100	Metabolite_Detected		Unstable	
COC(=O)[C@H](C)NP(=O)(/C=C/C=C(C)C)Oc1ccccc1 (some centres not stated)	> 100			69					63	75	> 100	11	> 100	> 100	Metabolite_Detected			
C/C(=C\C=C\P(=O)(O)O)CO	> 100											15						Active
C/C(=C\CCP(=O)(OCOC(=O)C(C)(C)C)OCOC(=O)C(C)(C)C)CO	> 100									0.024	0.03			0.043		Unstable	Unstable	
